Assays:
[1] = Cytotoxicity against mouse LL2 cells measured after 8 days; assay type: functional, cell-based; conditions: Lewis lung carcinoma, 192 h
[2] = Cytotoxicity against human MCAS cells measured after 8 days; assay type: functional, cell-based; conditions: 192 h
[3] = system: CT26.WT; test: Cytotoxicity against mouse CT26.WT cells measured after 8 days; assay type: functional, cell-based; conditions: 192 h
[4] = system: CAKI-2; test: Cytotoxicity against human CAKI-2 cells measured after 8 days; assay type: functional, cell-based; conditions: CAKI-2, 192 h
[5] = Cytotoxicity against human MMAc cells measured after 8 days; assay type: functional, cell-based; conditions: 192 h
[6] = system: SiHa; test: Cytotoxicity against human SiHa cells measured after 8 days; assay type: functional, cell-based; conditions: 192 h
[7] = Cytotoxicity against human Fu97 cells measured after 8 days; assay type: functional, cell-based; conditions: Fu97, 192 h
[8] = system: KYSE-450; test: Cytotoxicity against human KYSE-450 cells measured after 8 days; assay type: functional, cell-based; conditions: KYSE-450, 192 h
[9] = system: FaDu; test: Cytotoxicity against human FaDu cells measured after 8 days; assay type: functional, cell-based; conditions: 192 h
[10] = system: SK-MEL3; test: Cytotoxicity against human SK-MEL3 cells measured after 8 days; assay type: functional, cell-based; conditions: SK-MEL3, 192 h
[11] = Cytotoxicity against mouse JC cells measured after 8 days; assay type: functional, cell-based; conditions: 192 h
[12] = system: SK-MEL-2; test: Cytotoxicity against human SK-MEL-2 cells measured after 8 days; assay type: functional, cell-based; conditions: SK-MEL-2, 192 h
[13] = species on record: Homo sapiens; test: Inhibition of human N muscle type receptor at 10 uM relative to control
[14] = Cytotoxicity against human KMS-26 cells measured after 8 days; assay type: functional, cell-based; conditions: KMS-26, 192 h
[15] = system: MDA-MB-453; test: Cytotoxicity against human MDA-MB-453 cells measured after 8 days; assay type: functional, cell-based; conditions: MDA-MB-453, 192 h
[16] = system: U2OS; test: Cytotoxicity against human U2OS cells measured after 8 days; assay type: functional, cell-based; conditions: 192 h
[17] = system: TOV21G; test: Cytotoxicity against human TOV-21G cells measured after 8 days; assay type: functional, cell-based; conditions: 192 h
[18] = system: MHH-ES-1; test: Cytotoxicity against human MHH-ES-1 cells measured after 8 days; assay type: functional, cell-based; conditions: MHH-ES-1, 192 h
[19] = Cytotoxicity against mouse TRAMP-C2 cells measured after 8 days; assay type: functional, cell-based; conditions: TRAMP-C2, 192 h
[20] = system: SH-SY5Y; test: Cytotoxicity against human SH-SY5Y cells measured after 8 days; assay type: functional, cell-based; conditions: 192 h
[21] = system: RT-112; test: Cytotoxicity against human RT-112 cells measured after 8 days; assay type: functional, cell-based; conditions: RT-112, 192 h
[22] = system: S-117; test: Cytotoxicity against human S-117 cells measured after 8 days; assay type: functional, cell-based; conditions: S-117, 192 h
[23] = system: L-363; test: Cytotoxicity against human L-363 cells measured after 8 days; assay type: functional, cell-based; conditions: L-363, 192 h
[24] = Cytotoxicity against human KP-3 cells measured after 8 days; assay type: functional, cell-based; conditions: KP-3, 192 h
[25] = system: RT-4; test: Cytotoxicity against human RT-4 cells measured after 8 days; assay type: functional, cell-based; conditions: RT-4, 192 h
[26] = Cytotoxicity against human COLO-704 cells measured after 8 days; assay type: functional, cell-based; conditions: COLO 704, 192 h
[27] = system: BT-474; test: Cytotoxicity against human BT-474 cells measured after 8 days; assay type: functional, cell-based; conditions: BT-474, 192 h
[28] = system: COLO-679; test: Cytotoxicity against human COLO-679 cells measured after 8 days; assay type: functional, cell-based; conditions: COLO-679, 192 h
[29] = Cytotoxicity against human FTC-238 cells measured after 8 days; assay type: functional, cell-based; conditions: FTC-238, 192 h
[30] = Cytotoxicity against human SW403 cells measured after 8 days; assay type: functional, cell-based; conditions: SW-403, 192 h
[31] = system: G-401; test: Cytotoxicity against human G-401 cells measured after 8 days; assay type: functional, cell-based; conditions: G-401, 192 h
[32] = system: BHY; test: Cytotoxicity against human BHY cells measured after 8 days; assay type: functional, cell-based; conditions: 192 h
[33] = Cytotoxicity against human T.T cells measured after 8 days; assay type: functional, cell-based; conditions: TT, 192 h
[34] = Cytotoxicity against human HEC-88nu cells measured after 8 days; assay type: functional, cell-based; conditions: 192 h
[35] = Cytotoxicity against human KPP14388 cells measured after 8 days; assay type: functional, cell-based; conditions: KPP14388, 192 h
[36] = Cytotoxicity against human SKG-II cells measured after 8 days; assay type: functional, cell-based; conditions: 192 h
[37] = system: OE33; test: Cytotoxicity against human OE33 cells measured after 8 days; assay type: functional, cell-based; conditions: OE33, 192 h
[38] = Cytotoxicity against human NCE-G 121 cells measured after 8 days; assay type: functional, cell-based; conditions: NCE-G 121, 192 h
[39] = system: LOX IMVI; test: Cytotoxicity against human LOX IMVI cells measured after 8 days; assay type: functional, cell-based; conditions: 192 h
[40] = Cytotoxicity against human QGP-1 cells measured after 8 days; assay type: functional, cell-based; conditions: QGP-1, 192 h
[41] = system: SW837; test: Cytotoxicity against human SW837 cells measured after 8 days; assay type: functional, cell-based; conditions: SW837, 192 h
[42] = Cytotoxicity against human MR1-3 cells measured after 8 days; assay type: functional, cell-based; conditions: MR1-3, 192 h
[43] = system: KINGS-1; test: Cytotoxicity against human KINGS-1 cells measured after 8 days; assay type: functional, cell-based; conditions: KINGS-1, 192 h
[44] = system: MKN-74; test: Cytotoxicity against human MKN-74 cells measured after 8 days; assay type: functional, cell-based; conditions: MKN-74, 192 h
[45] = system: RL95-2; test: Cytotoxicity against human RL95-2 cells measured after 8 days; assay type: functional, cell-based; conditions: RL95-2, 192 h
[46] = system: Capan-2; test: Cytotoxicity against human Capan-2 cells measured after 8 days; assay type: functional, cell-based; conditions: Capan-2, 192 h
[47] = Cytotoxicity against human JHH7 cells measured after 8 days; assay type: functional, cell-based; conditions: JHH7, 192 h
[48] = system: BCPAP; test: Cytotoxicity against human BCPAP cells measured after 8 days; assay type: functional, cell-based; conditions: 192 h
[49] = system: OE19; test: Cytotoxicity against human OE19 cells measured after 8 days; assay type: functional, cell-based; conditions: OE19, 192 h
[50] = system: PaTu 8988t; test: Cytotoxicity against human PaTu 8988t cells measured after 8 days; assay type: functional, cell-based; conditions: 192 h
[51] = system: FTC-133; test: Cytotoxicity against human FTC-133 cells measured after 8 days; assay type: functional, cell-based; conditions: FTC-133, 192 h
[52] = system: A-431; test: Cytotoxicity against human A-431 cells measured after 8 days; assay type: functional, cell-based; conditions: A-431, 192 h
[53] = system: COLO-320-HSR; test: Cytotoxicity against human COLO 320HSR cells measured after 8 days; assay type: functional, cell-based; conditions: 192 h
[54] = Cytotoxicity against human SNU-484 cells measured after 8 days; assay type: functional, cell-based; conditions: SNU-484, 192 h
[55] = system: Huh-7; test: Cytotoxicity against human Huh-7 cells measured after 8 days; assay type: functional, cell-based; conditions: Huh-7, 192 h
[56] = system: BXPC-3; test: Cytotoxicity against human BXPC-3 cells measured after 8 days; assay type: functional, cell-based; conditions: BXPC-3, 192 h
[57] = system: OCI-AML-3; test: Cytotoxicity against human OCI-AML-3 cells measured after 8 days; assay type: functional, cell-based; conditions: OCI-AML-3, 192 h
[58] = Cytotoxicity against human HEC-6 cells measured after 8 days; assay type: functional, cell-based; conditions: HEC-6, 192 h
[59] = system: BOKU; test: Cytotoxicity against human BOKU cells measured after 8 days; assay type: functional, cell-based; conditions: 192 h
[60] = system: MC-38; test: Cytotoxicity against mouse MC-38 cells measured after 8 days; assay type: functional, cell-based; conditions: MC-38, 192 h
[61] = Cytotoxicity against human JHH-2 cells measured after 8 days; assay type: functional, cell-based; conditions: JHH-2, 192 h
[62] = Cytotoxicity against human JJ012 cells measured after 8 days; assay type: functional, cell-based; conditions: JJ012, 192 h
[63] = system: RS4-11; test: Cytotoxicity against human RS4-11 cells measured after 8 days; assay type: functional, cell-based; conditions: RS4-11, 192 h

C/C=C/Cn1cc(-c2ccc(C(=O)N3CCOCC3)cc2)c2cc[nH]c2c1=O
IC50 [1]: 20 µM | IC50 [2]: 20 µM | IC50 [3]: 20 µM | IC50 [4]: 20 µM | IC50 [5]: 20 µM | IC50 [6]: 20 µM | IC50 [7]: 20 µM | IC50 [8]: 20 µM | IC50 [9]: 20 µM | IC50 [10]: 20 µM | IC50 [11]: 20 µM | IC50 [12]: 20 µM | inhibition [13]: -1% | IC50 [14]: 2.11 µM | IC50 [15]: 20 µM | IC50 [16]: 20 µM | IC50 [17]: 20 µM | IC50 [18]: 20 µM | IC50 [19]: 20 µM | IC50 [20]: 20 µM | IC50 [21]: 20 µM | IC50 [22]: 20 µM | IC50 [23]: 10.4 µM | IC50 [24]: 20 µM | IC50 [25]: 20 µM | IC50 [26]: 20 µM | IC50 [27]: 20 µM | IC50 [28]: 20 µM | IC50 [29]: 20 µM | IC50 [30]: 20 µM | IC50 [31]: 20 µM | IC50 [32]: 20 µM | IC50 [33]: 20 µM | IC50 [34]: 20 µM | IC50 [35]: 20 µM | IC50 [36]: 20 µM | IC50 [37]: 20 µM | IC50 [38]: 20 µM | IC50 [39]: 20 µM | IC50 [40]: 20 µM | IC50 [41]: 20 µM | IC50 [42]: 20 µM | IC50 [43]: 20 µM | IC50 [44]: 20 µM | IC50 [45]: 20 µM | IC50 [46]: 20 µM | IC50 [47]: 20 µM | IC50 [48]: 20 µM | IC50 [49]: 20 µM | IC50 [50]: 20 µM | IC50 [51]: 20 µM | IC50 [52]: 20 µM | IC50 [53]: 20 µM | IC50 [54]: 20 µM | IC50 [55]: 20 µM | IC50 [56]: 20 µM | IC50 [57]: 11.3 µM | IC50 [58]: 20 µM | IC50 [59]: 20 µM | IC50 [60]: 20 µM | IC50 [61]: 20 µM | IC50 [62]: 20 µM

C/C=C/Cn1cc(-c2cc(OC)c(C(=O)N3CCOCC3)cc2OC)c2cc(C)[nH]c2c1=O
IC50 [63]: 2 µM
